Each block holds one molecule with its values, some of them ahead of it.
Assays:
[1] = molecular target: T1, SIRT1 (Homo sapiens, UniProt Q96EB6); test: BIOMOL SIRT1 Fluorimetric Drug Discovery Kit (BSDK) deacetylase assay on fluorophore-conjugated acetyl p53 peptide; type: biochemical; parameters: purchased Biomol (Hamburg, Germany)
T1 sequence (Q96EB6 1-747): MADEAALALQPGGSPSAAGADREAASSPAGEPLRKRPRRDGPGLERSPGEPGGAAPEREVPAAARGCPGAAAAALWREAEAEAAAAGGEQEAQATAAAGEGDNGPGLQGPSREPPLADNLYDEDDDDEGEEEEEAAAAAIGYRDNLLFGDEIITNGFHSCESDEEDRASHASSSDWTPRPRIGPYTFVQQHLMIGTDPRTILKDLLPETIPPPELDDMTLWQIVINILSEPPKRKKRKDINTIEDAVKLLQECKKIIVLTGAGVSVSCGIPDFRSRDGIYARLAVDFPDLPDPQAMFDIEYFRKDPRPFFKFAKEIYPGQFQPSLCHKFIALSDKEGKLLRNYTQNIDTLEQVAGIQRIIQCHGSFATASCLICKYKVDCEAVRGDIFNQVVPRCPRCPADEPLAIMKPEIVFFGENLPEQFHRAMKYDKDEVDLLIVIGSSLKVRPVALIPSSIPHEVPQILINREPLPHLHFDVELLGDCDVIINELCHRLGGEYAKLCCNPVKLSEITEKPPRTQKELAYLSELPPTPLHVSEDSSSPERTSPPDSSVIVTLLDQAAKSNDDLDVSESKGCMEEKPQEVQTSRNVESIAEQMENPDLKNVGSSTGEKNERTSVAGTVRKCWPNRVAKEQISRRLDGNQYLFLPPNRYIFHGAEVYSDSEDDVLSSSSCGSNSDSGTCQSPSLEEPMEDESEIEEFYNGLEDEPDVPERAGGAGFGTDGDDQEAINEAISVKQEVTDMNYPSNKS
Experimental: (§1) SIRT1 deacetylation assay on fluorophore-conjugated synthetic p53 peptide was performed with SIRT1 Fluorimetric Drug Discovery Kit (Biomol, Hamburg, Germany) according to the manufactory's instruction. Cells were fractionated as described above except that protease inhibitors were NOT included and the nuclear matrix fraction was suspended into the assay buffer provided by the supplier. Different cell fractions or recombinant human lamin A (rhLamin A, Diatheva, Italy) were added in the reaction mix of SIRT1 Fluorimetric Drug Discovery Kit, incubated for 20 min at 37° C., and then the reaction was stopped and fluorescent signal was detected. SIRT1 deacetylase activity on native target was assayed using SIRT1 assay Kit from Sigma (USA). Constructs encoding FLAG-p53 and HA-p300 were co-transfected into HEK293 cells; FLAG-p53 was immunoprecipitated by anti-FLAG M2 Agarose (Sigma) followed by elution with FLAG peptide (Sigma). Purified acetyl FLAG-p53 was incubated with recombinant human SIRT1 (rhSIRT1) and NAD+ for 30 min at 37° C., in the presence or absence of rhLamin A or resveratrol. The acetylation level of FLAG-p53 was determined by Western blotting with pan anti acetyl lysine antibodies.
To test this hypothesis, in vitro deacetylase activity of rhSIRT1 by a BIOMOL® SIRT1 Fluorimetric Drug Discovery Kit (BSDK) was quantified in the presence or absence of NM derived from wild-type or Zmpste24−/− BMSCs.
This Example further investigates whether lamin A acts as an activator of SIRT1. In mammalian cells, lysine acetyltransferase p300 and SIRT1 mediate the acetylation and deacetylation of p53 on residue K382 (Gu and Roeder, 1997). BSDK utilizes fluorophore-conjugated acetyl p53 peptide as target (see Materials and Methods).

[2] = molecular target: T1, SIRT1; details: Beher 2009; Dai 2010; Pacholec 2010; cited from earlier work
[3] = test system: Zmpste24−/− mice; test: Survival and body weight of Zmpste24−/− mice treated via drinking water; type: in vivo, mouse; details: NAC 1 mg/ml in drinking water
Experimental: (§2) Zmpste24^−/− mice have been described previously (Pendas et al., 2002). Mouse experimentation was performed in accordance with the guidelines of the Committee on the Use of Live Animals in Teaching and Research (CULATR) at the University of Hong Kong. New-born Zmpste24^−/− mice and wild-type controls were fed with resveratrol (20 μg/ml) or N-acetyl Cysteine (1 mg/ml) in drinking water. The survival of resveratrol-treated, NAC-treated, or vehicle-treated Zmpste24^−/− mice was recorded and their body weight was monitored weekly. The trabecular bone organization and bone mineral density were determined by micro-CT. The survival rate was analyzed by Kaplan-Meier method and statistical comparison was performed by Log-rank (Mantel-Cox) Test.
Briefly, resveratrol was supplemented at a concentration of 20 μg/ml in drinking water. Four months after treatment, BMSCs were collected for examination and comparison between resveratrol-treated and vehicle-treated Zmpste24^−/− mice.

[4] = test system: Zmpste24−/− mice; test: BMSC colony-forming efficiency after in vivo treatment of Zmpste24−/− mice; parameters: species or system mouse; details: NAC 1 mg/ml in drinking water
Experimental: as §2
Bone marrow stromal cells were isolated and cultured according to modified protocol (Enumeration and Expansion of Mouse Mesenchymal Progenitor Cells Using MESENCUILT®, Stemcell Technologies, Canada). Briefly, bone marrow cells were flushed out from femurs and tibias with α-MEM (Invitrogen, Carlsbad, Calif., USA) supplemented with 20% FBS, and plated in petri dishes. Non-adherent cells were removed on day 3 and medium was replaced every 3 days. […] Colonies containing more than 50 cells were counted. BMSC colony forming efficiency was calculated as number of colonies formed by […] bone marrow nucleated cells. […]

[5] = test system: Zmpste24−/− mice; test: HSC population in bone marrow of treated Zmpste24−/− mice (FACS); type: in vivo, mouse; details: NAC 1 mg/ml in drinking water
Experimental: as §2, with “Zmpste24^-/-” for “Zmpste24^−/−”, “([…]” for “(Pendas”, “Test. To analyze hematopoietic stem cells, mononucleated cells were collected by flushing femurs and tibias with staining medium (HBSS supplemented with 2% FBS) and stained with biotin-coupled lineage markers, Biotin-Flt3, PE-Sca-1, APC-c-Kit, and then SAv-PerCP. FACS profile analyses were performed using a BD FACSCalibur.” for “Test.”

[6] = test system: Zmpste24−/− HSCs; test: ROS level in freshly isolated HSCs (DCF-DA, FACS); type: in vivo, mouse; details: NAC 1 mg/ml in drinking water; elevated in Zmpste24−/− HSCs
Experimental: as §2
To purify HSCs, red blood cells were lysed using NH4Cl before surface-marker staining, and HSCs were then sorted with a BD FACSVantage SE. Sorted HSCs were incubated with 5 μM DCF-DA at 37° C. for 30 min and analyzed by FACS at 488-nm excitation and 525-nm emission to determine the ROS level.

[7] = molecular target: T2, rhSIRT1 binding to rhLamin A (Homo sapiens, UniProt Q96EB6); test: Pull-down of rhSIRT1 with rhLamin A in test tube (anti-lamin A immunoprecipitation); details: in a test tube
T2 construct: purchased Diatheva, Italy (rhLamin A)
T2 sequence (Q96EB6 1-747): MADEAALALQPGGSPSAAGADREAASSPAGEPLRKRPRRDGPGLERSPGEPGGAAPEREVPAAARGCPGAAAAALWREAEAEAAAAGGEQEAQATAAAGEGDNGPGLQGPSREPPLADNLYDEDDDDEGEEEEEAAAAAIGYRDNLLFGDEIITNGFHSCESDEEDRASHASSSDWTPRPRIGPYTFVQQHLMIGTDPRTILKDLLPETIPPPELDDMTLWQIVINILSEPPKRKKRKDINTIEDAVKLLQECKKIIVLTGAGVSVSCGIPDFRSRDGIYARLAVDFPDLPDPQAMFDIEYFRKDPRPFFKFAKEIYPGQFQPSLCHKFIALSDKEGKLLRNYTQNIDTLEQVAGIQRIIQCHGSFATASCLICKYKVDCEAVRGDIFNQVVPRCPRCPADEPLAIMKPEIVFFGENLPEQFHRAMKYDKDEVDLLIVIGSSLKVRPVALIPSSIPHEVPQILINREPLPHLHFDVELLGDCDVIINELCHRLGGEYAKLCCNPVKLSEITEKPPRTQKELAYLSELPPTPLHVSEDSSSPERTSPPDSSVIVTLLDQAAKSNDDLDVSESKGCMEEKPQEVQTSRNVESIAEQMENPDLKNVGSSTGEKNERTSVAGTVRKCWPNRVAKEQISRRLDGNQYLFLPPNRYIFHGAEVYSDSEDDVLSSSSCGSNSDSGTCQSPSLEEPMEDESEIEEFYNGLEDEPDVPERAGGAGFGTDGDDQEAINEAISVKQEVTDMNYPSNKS
T2 sequence (P02545 1-664 partner): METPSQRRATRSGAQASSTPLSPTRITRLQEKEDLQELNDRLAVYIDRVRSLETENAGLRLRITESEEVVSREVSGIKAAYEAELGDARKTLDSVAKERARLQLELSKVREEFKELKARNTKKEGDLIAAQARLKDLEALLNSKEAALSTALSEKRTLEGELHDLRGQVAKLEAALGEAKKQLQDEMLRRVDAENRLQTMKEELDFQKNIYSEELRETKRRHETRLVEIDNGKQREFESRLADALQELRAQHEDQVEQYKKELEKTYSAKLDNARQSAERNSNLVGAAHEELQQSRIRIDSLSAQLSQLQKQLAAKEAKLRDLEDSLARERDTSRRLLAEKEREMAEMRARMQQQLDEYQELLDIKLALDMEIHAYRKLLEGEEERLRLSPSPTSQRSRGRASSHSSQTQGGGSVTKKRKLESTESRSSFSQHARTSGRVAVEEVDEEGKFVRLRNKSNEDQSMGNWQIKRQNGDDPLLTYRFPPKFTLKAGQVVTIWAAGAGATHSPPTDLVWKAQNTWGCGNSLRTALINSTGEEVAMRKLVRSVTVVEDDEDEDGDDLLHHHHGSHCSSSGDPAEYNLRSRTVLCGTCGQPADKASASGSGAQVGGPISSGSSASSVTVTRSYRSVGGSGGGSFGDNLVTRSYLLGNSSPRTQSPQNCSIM
Experimental: For co-immunoprecipitation, cells were lysed into pre-chilled RIPA buffer containing 300 mM or 500 mM NaCl and protease inhibitors. Primary antibodies or appropriate control IgGs were added to the lysate and incubated for 2 h on a rocking platform at 4° C. before Agarose beads were added and incubated O/N. The beads were washed twice with RIPA buffer, resuspended into Laemmli buffer and boiled, and protein suspension was collected by centrifugation and stored for further analysis.
Consistently, ectopic EGFP-SIRT1 and DsRed-lamin A co-existed in the nuclear interior (FIG. 1D). This interaction seems specific to nuclear SIRT1 as neither cytoplasmic SIRT1 nor mitochondrial SIRT5 was detected in the anti GFP-lamin A immunoprecipitates (FIG. 6C). In addition, SIRT1 physically interacts with lamin A as recombinant human SIRT1 (rhSIRT1) was pulled down by recombinant human lamin A (rhLamin A) in a test tube (FIG. 1E).

[8] = molecular target: T1, SIRT1; test: SIRT1 deacetylation assay on native full-length acetyl FLAG-p53 (Western blotting, anti-acetyl lysine); type: biochemical; parameters: purchased Biomol (Hamburg, Germany)
Experimental: as §1
To further test the effect of rhLamin A on the native target of SIRT1, acetyl p53 was purified by anti-FLAG immunoprecipitation in HEK293 cells ectopically expressing FLAG-p53 and p300, and SIRT1 deacetylation assay was performed as described in Materials and Methods.

Lamin A-stimulated SIRT1 deacetylase activity ([1]; SIRT1 inhibitor added): completely abolished
Molecule: Cc1ccc(C(=O)Nc2ccc(S(=O)(=O)O)c3cc(S(=O)(=O)O)cc(S(=O)(=O)O)c23)cc1NC(=O)c1cccc(NC(=O)Nc2cccc(C(=O)Nc3cc(C(=O)Nc4ccc(S(=O)(=O)O)c5cc(S(=O)(=O)O)cc(S(=O)(=O)O)c45)ccc3C)c2)c1 [Suramin]

rhSIRT1 pulled down by rhLamin A [7]: pulled down
decrease in FLAG-p53 acetylation level ([8]; rhLamin A-rhSIRT1 complex compared with rhSIRT1 only): around 20%
B1: rhLamin A: recombinant human lamin A (rhLamin A, Diatheva, Italy) (protein, listed as Homo sapiens)
chain: METPSQRRATRSGAQASSTPLSPTRITRLQEKEDLQELNDRLAVYIDRVRSLETENAGLRLRITESEEVVSREVSGIKAAYEAELGDARKTLDSVAKERARLQLELSKVREEFKELKARNTKKEGDLIAAQARLKDLEALLNSKEAALSTALSEKRTLEGELHDLRGQVAKLEAALGEAKKQLQDEMLRRVDAENRLQTMKEELDFQKNIYSEELRETKRRHETRLVEIDNGKQREFESRLADALQELRAQHEDQVEQYKKELEKTYSAKLDNARQSAERNSNLVGAAHEELQQSRIRIDSLSAQLSQLQKQLAAKEAKLRDLEDSLARERDTSRRLLAEKEREMAEMRARMQQQLDEYQELLDIKLALDMEIHAYRKLLEGEEERLRLSPSPTSQRSRGRASSHSSQTQGGGSVTKKRKLESTESRSSFSQHARTSGRVAVEEVDEEGKFVRLRNKSNEDQSMGNWQIKRQNGDDPLLTYRFPPKFTLKAGQVVTIWAAGAGATHSPPTDLVWKAQNTWGCGNSLRTALINSTGEEVAMRKLVRSVTVVEDDEDEDGDDLLHHHHGSHCSSSGDPAEYNLRSRTVLCGTCGQPADKASASGSGAQVGGPISSGSSASSVTVTRSYRSVGGSGGGSFGDNLVTRSYLLGNSSPRTQSPQNCSIM
deacetylase activity of rhSIRT1 on acetyl p53 peptide ([1]; in the presence of rhLamin A, molar ratio rhLamin A to rhSIRT1 0.5, 1.0, 2.0, 4.0): increased in a dose-dependent manner

The next lines start with the molecule.

Molecule: O=C(Nc1ccccc1-c1cn2c(CN3CCNCC3)csc2n1)c1cnc2ccccc2n1 [SRT1720]
SIRT1 activation towards full-length native target proteins, including p53 and PGC-1α [2]: do not confer any SIRT1 activation

Molecule: CC(=O)N[C@@H](CS)C(=O)O [N-acetyl Cysteine]
lifespan [3]: extended lifespan to a similar extent as resveratrol did
decline in BMSCs [4]: rescued
decline in HSCs [5]: rescued
ROS level in HSCs [6]: rescued ROS level

B2: LA-80: synthetic peptide of carboxyl 80 aa of lamin A (peptide)
peptide: GSHCSSSGDPAEYNLRSRTVLCGTCGQPADKASASGSGAQVGGPISSGSSASSVTVTRSYRSVGGSGGGSFGDNLVTRSY
activating potential on SIRT1 towards fluorophore-conjugated synthetic peptide (Ac-Arg-His-Lys-LysAc-AMC) ([1]; compared with lamin A): much higher activating potential
activating potential on SIRT1 towards full-length acetylated FLAG-p53 protein ([8]; compared with lamin A): much higher activating potential

— patent US10086039B2, “Lamin A, an activator of longevity/anti-aging SIRT1 protein” (THE UNIVERSITY OF HONG KONG, priority 2012, dated 2018)
